Results published in paper PMC12311952, “Mechanism of SC targeting RhoA regulation and its potential value in gastric cancer therapy” (Biochemistry and Biophysics Reports, 2025).

Molecular target: RhoA (Homo sapiens, UniProt P61586)
Assay: SPR (Biacore T200, RhoA immobilized on CM5 chip, […] Langmuir fit)
Format: binding

Sequence of RhoA (P61586 1-190): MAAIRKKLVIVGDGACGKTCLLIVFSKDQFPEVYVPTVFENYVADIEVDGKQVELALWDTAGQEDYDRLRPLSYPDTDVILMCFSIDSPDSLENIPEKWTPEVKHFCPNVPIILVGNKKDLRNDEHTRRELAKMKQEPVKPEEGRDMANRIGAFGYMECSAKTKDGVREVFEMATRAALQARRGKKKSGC

O=C(/C=C/CCc1ccc(O)c(O)c1)CCCCc1ccc(O)c(O)c1 [compound 5, (E)-1,9-bis(3,4-dihydroxyphenyl)non-3-en-5-one]
Kd: 1590 nM
